Data taken from ChEMBL document CHEMBL1201862, “PubChem BioAssay data set” (2004).
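Following 48 hours of exposure in 96-well plates, responses at five concentrations were used to interpolate endpoints linearly. GI50 = concentration required for 50% inhibition of growth.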 Active and inactive are the calls of the source. Rule as the data show it: active = GI50 up to about 1.1 µM and inactive = higher.

How the values were obtained:
Assay in all cases: DTP human tumour cell line panel, 48 h
[1] = system: SNB-75
[2] = system: MOLT-4
[3] = system: HT-29
[4] = system: RXF 393
[5] = system: OVCAR-4
[6] = system: HL-60
[7] = system: NCI-H460
[8] = system: SW-620
[9] = system: HOP-62
[10] = system: KM12
[11] = system: UACC-62
[12] = system: RPMI-8226
[13] = system: OVCAR-3
[14] = system: T47D
[15] = system: A549
[16] = system: HCT-116
[17] = system: HCT-15
[18] = system: MDA-MB-435
[19] = system: SNB-19
[20] = system: SF-268
[21] = system: SF-539
[22] = system: BT-549
[23] = system: UO-31
[24] = system: CAKI-1
[25] = system: NCI-H226
[26] = system: SN12C
[27] = system: DU-145
[28] = system: U-251
[29] = system: ACHN
[30] = system: UACC-257
[31] = system: LOX IMVI
[32] = system: SF-295
[33] = system: A498
[34] = system: SK-OV-3
[35] = system: Malme-3M
[36] = system: SK-MEL-28
[37] = system: IGROV-1
[38] = system: 786-0
[39] = system: SK-MEL-5
[40] = system: K562
[41] = system: SR
[42] = system: MDA-MB-231
[43] = system: HCC 2998
[44] = system: OVCAR-8
[45] = system: MDA-N
[46] = system: CCRF-CEM
[47] = system: TK-10
[48] = system: NCI-H23
[49] = system: MCF7
[50] = system: NCI/ADR-RES
[51] = system: EKVX
[52] = system: COLO 205
[53] = system: OVCAR-5
[54] = system: SK-MEL-2
[55] = system: PC-3
[56] = system: M14
[57] = system: NCI-H522
[58] = system: HOP-92

SMILES: COc1ccc(-c2nc(Nc3ccccc3)sc2Cc2sc(Nc3ccccc3)nc2-c2ccc(OC)cc2)cc1
- GI50 [1]: > 100 µM (inactive)
- GI50 [2]: 12.6 µM (inactive)
- GI50 [3]: 70.6 µM (inactive)
- GI50 [4]: 4.35 µM (inactive)
- GI50 [5]: 24.3 µM (inactive)
- GI50 [6]: 0.787 µM (active)
- GI50 [7]: 51.8 µM (inactive)
- GI50 [8]: 67.5 µM (inactive)
- GI50 [9]: > 100 µM (inactive)
- GI50 [10]: 8.59 µM (inactive)
- GI50 [11]: > 100 µM (inactive)
- GI50 [12]: 1.8 µM (inactive)
- GI50 [13]: 17.1 µM (inactive)
- GI50 [14]: 38.5 µM (inactive)
- GI50 [15]: > 100 µM (inactive)
- GI50 [16]: 43.4 µM (inactive)
- GI50 [17]: > 100 µM
- GI50 [18]: 52.4 µM (inactive)
- GI50 [19]: > 100 µM (inactive)
- GI50 [20]: > 100 µM (inactive)
- GI50 [21]: > 100 µM (inactive)
- GI50 [22]: > 100 µM (inactive)
- GI50 [23]: > 100 µM (inactive)
- GI50 [24]: > 100 µM (inactive)
- GI50 [25]: > 100 µM (inactive)
- GI50 [26]: 27 µM (inactive)
- GI50 [27]: > 100 µM (inactive)
- GI50 [28]: > 100 µM (inactive)
- GI50 [29]: 45.1 µM (inactive)
- GI50 [30]: > 100 µM (inactive)
- GI50 [31]: 15.5 µM (inactive)
- GI50 [32]: > 10 µM (inactive)
- GI50 [33]: 25.2 µM (inactive)
- GI50 [34]: > 100 µM (inactive)
- GI50 [35]: > 100 µM (inactive)
- GI50 [36]: > 100 µM (inactive)
- GI50 [37]: > 100 µM (inactive)
- GI50 [38]: 98.9 µM (inactive)
- GI50 [39]: > 100 µM (inactive)
- GI50 [40]: 5.18 µM (inactive)
- GI50 [41]: 26 µM (inactive)
- GI50 [42]: > 100 µM (inactive)
- GI50 [43]: > 100 µM (inactive)
- GI50 [44]: > 100 µM (inactive)
- GI50 [45]: 46.1 µM (inactive)
- GI50 [46]: 36.5 µM (inactive)
- GI50 [47]: > 100 µM (inactive)
- GI50 [48]: 37.7 µM (inactive)
- GI50 [49]: 8.05 µM (inactive)
- GI50 [50]: > 100 µM (inactive)
- GI50 [51]: > 100 µM (inactive)
- GI50 [52]: 7.57 µM (inactive)
- GI50 [53]: > 100 µM (inactive)

SMILES: N#CC(/N=N/c1ccccc1C(=O)O)C(N)=O (configuration not stated)
- GI50 [1]: 60.3 µM (inactive)
- GI50 [2]: > 100 µM (inactive)
- GI50 [3]: > 100 µM (inactive)
- GI50 [4]: > 100 µM (inactive)
- GI50 [5]: > 100 µM (inactive)
- GI50 [54]: > 100 µM (inactive)
- GI50 [6]: > 100 µM (inactive)
- GI50 [7]: > 100 µM (inactive)
- GI50 [8]: > 100 µM (inactive)
- GI50 [9]: > 100 µM (inactive)
- GI50 [10]: > 100 µM (inactive)
- GI50 [55]: > 100 µM (inactive)
- GI50 [11]: > 100 µM (inactive)
- GI50 [12]: > 100 µM (inactive)
- GI50 [13]: > 100 µM (inactive)
- GI50 [14]: > 100 µM (inactive)
- GI50 [15]: > 100 µM (inactive)
- GI50 [16]: > 100 µM (inactive)
- GI50 [17]: 68.9 µM
- GI50 [18]: > 100 µM (inactive)
- GI50 [19]: > 100 µM (inactive)
- GI50 [22]: > 100 µM (inactive)
- GI50 [23]: > 100 µM (inactive)
- GI50 [24]: > 100 µM (inactive)
- GI50 [56]: > 100 µM (inactive)
- GI50 [25]: 82.8 µM (inactive)
- GI50 [26]: > 100 µM (inactive)
- GI50 [27]: > 100 µM (inactive)
- GI50 [28]: > 100 µM (inactive)
- GI50 [29]: 68.7 µM (inactive)
- GI50 [30]: > 100 µM (inactive)
- GI50 [32]: > 100 µM (inactive)
- GI50 [35]: 91.2 µM (inactive)
- GI50 [36]: > 100 µM (inactive)
- GI50 [38]: > 100 µM (inactive)
- GI50 [39]: > 100 µM (inactive)
- GI50 [57]: > 100 µM (inactive)
- GI50 [40]: > 100 µM (inactive)
- GI50 [41]: > 100 µM (inactive)
- GI50 [42]: > 100 µM (inactive)
- GI50 [45]: > 100 µM (inactive)
- GI50 [46]: > 100 µM (inactive)
- GI50 [47]: > 100 µM (inactive)
- GI50 [48]: > 100 µM (inactive)
- GI50 [50]: 39.8 µM (inactive)
- GI50 [51]: > 100 µM (inactive)
- GI50 [53]: > 100 µM (inactive)

SMILES: CCOC(=O)Cc1nnc2c(-c3ccccc3)nc3ccccc3n12
- GI50 [2]: > 100 µM (inactive)
- GI50 [3]: > 100 µM (inactive)
- GI50 [4]: 20.6 µM (inactive)
- GI50 [5]: > 100 µM (inactive)
- GI50 [54]: 28.1 µM (inactive)
- GI50 [6]: > 100 µM (inactive)
- GI50 [7]: > 100 µM (inactive)
- GI50 [8]: > 100 µM (inactive)
- GI50 [58]: 41.6 µM (inactive)
- GI50 [9]: 14.4 µM (inactive)
- GI50 [10]: > 100 µM (inactive)
- GI50 [55]: 34.5 µM (inactive)
- GI50 [11]: 44.7 µM (inactive)
- GI50 [12]: > 100 µM (inactive)
- GI50 [13]: 14.6 µM (inactive)
- GI50 [15]: > 100 µM (inactive)
- GI50 [16]: 35.4 µM (inactive)
- GI50 [17]: 56.2 µM
- GI50 [18]: > 100 µM (inactive)
- GI50 [19]: 24.8 µM (inactive)
- GI50 [20]: 20.6 µM (inactive)
- GI50 [21]: > 100 µM (inactive)
- GI50 [22]: > 100 µM (inactive)
- GI50 [23]: 71 µM (inactive)
- GI50 [56]: > 100 µM (inactive)
- GI50 [25]: > 100 µM (inactive)
- GI50 [26]: 53.8 µM (inactive)
- GI50 [27]: 33 µM (inactive)
- GI50 [28]: 22.4 µM (inactive)
- GI50 [29]: 19.8 µM (inactive)
- GI50 [30]: > 100 µM (inactive)
- GI50 [31]: 53.7 µM (inactive)
- GI50 [33]: 52.5 µM (inactive)
- GI50 [34]: 23.8 µM (inactive)
- GI50 [35]: > 100 µM (inactive)
- GI50 [36]: > 100 µM (inactive)
- GI50 [37]: 85.7 µM (inactive)
- GI50 [38]: > 100 µM (inactive)
- GI50 [39]: > 100 µM (inactive)
- GI50 [40]: > 100 µM (inactive)
- GI50 [41]: > 100 µM (inactive)
- GI50 [42]: 19.2 µM (inactive)
- GI50 [43]: 15.7 µM (inactive)
- GI50 [45]: > 100 µM (inactive)
- GI50 [46]: > 100 µM (inactive)
- GI50 [47]: 31.2 µM (inactive)
- GI50 [48]: 43.3 µM (inactive)
- GI50 [49]: 85.3 µM (inactive)
- GI50 [50]: 90.6 µM (inactive)
- GI50 [51]: 27.9 µM (inactive)
- GI50 [52]: > 100 µM (inactive)
- GI50 [53]: 63.5 µM (inactive)
